From article PMC8136874, “The entry reaction of the plant shikimate pathway is subjected to highly complex metabolite-mediated regulation” (The Plant Cell, 2021)
Values belong to the compound of their own block, whether it stands above or below them.

Tests used:
AthDHS2 = target: T1, AthDHS2 (Arabidopsis thaliana, UniProt Q00218); assay: DHS enzymatic activity assay with recombinant AthDHS2; format: biochemical; settings: for k cat / K m / V max: various concentrations of the substrate; for k cat: E4P values assume no substrate inhibition; for K m / V max: E4P values estimated from Lineweaver–Burk plots because of substrate inhibition; for inhibition of AthDHS2 activity / effect on AthDHS2 activity (in words): 1 mM effector
T1 construct: AthDHS2; residues 34–507; hexa-histidine; made in house; host or cells: E. coli Rosetta2 (DE3), pET28a

AthDHS3 = AthDHS3 (Arabidopsis thaliana, UniProt Q9SK84); assay: DHS enzymatic activity assay with recombinant AthDHS3; format: biochemical; settings: for V max: various concentrations of the substrate, means ± SEM, n = 3
Description: (§1) Unless otherwise noted, DHS enzymatic activity was monitored as previously described ([Liu et al., 2008]), with several optimizations for high-throughput assays with eight-strip PCR tubes and a thermal cycler. The enzyme solution (7.7 µL) containing 50 mM HEPES (pH 7.4) was preincubated with an effector molecule(s) at room temperature for 10 min. For assays using recombinant protein and enzyme fraction isolated from plant leaves, 0.01–0.05 µg and approximately 50 µg of proteins were used, respectively. After adding 0.5 µL of 0.1 M DTT, the samples were further incubated at room temperature for 15 min. […] The enzyme reaction was started by adding 6.8 µL of the substrate solution, then incubated at 37°C for 20 min, and terminated by adding 30 µL of 0.6 M trichloroacetic acid. After brief centrifugation, 5 µL of 200 mM NaIO4 (sodium meta-periodate) in 9 N H3PO4 was added to oxidize the enzymatic product and incubate at 25°C for 20 min. To stop the oxidation reaction, 20 µL of 0.75 M NaAsO2 (sodium arsenite), which was dissolved in 0.5 M Na2SO4 and 0.05 M H2SO4, was immediately mixed. After 5 min of incubation at room temperature, one-third of the sample solution was transferred to a new tube to be mixed with 50 µL of 40 mM thiobarbituric acid and incubated at 99°C for 15 min in a thermal cycler. Developed pink chromophore was extracted by putting the final solutions with 600 µL of cyclohexanone in eight-strip solvent-resistant plastic tubes, mixing vigorously and centrifuging them at 4,500 × g for 3 min to separate water- and cyclohexanone-based layers. The absorbance of the pink supernatant was read at 549 nm with the microplate reader (Infinite 200 PRO, TECAN, Männedorf, Switzerland) to calculate DAHP production with the molar extinction coefficient at 549 nm (ε = 549 nm) of 4.5 × 10^4/M/cm. Reaction mixtures with boiled enzyme or without any substrates were run in parallel and used as negative controls to estimate the background signal for recombinant enzymes or enzymatic fraction from plant tissues, respectively.
(§2) For determination of kinetic parameters, the data of enzymatic activities measured in the presence of various concentration of substrates were calculated with the Michaelis–Menten equation in Graphpad Prism 6 (GraphPad Software, San Diego, CA, USA).

AthDHS1 = target: T2, AthDHS1 (Arabidopsis thaliana, UniProt P29976); assay: DHS enzymatic activity assay with recombinant AthDHS1; format: biochemical; settings: for K m / V max / k cat: various concentrations of the substrate, means ± SEM, n = 3; for effect on AthDHS1 activity (in words): 1 mM effector
T2 construct: AthDHS1; residues 49–525; hexa-histidine; made in house; host or cells: E. coli Rosetta2 (DE3), pET28a
Description: as §1, §2

[1] = test system: root growth of Arabidopsis Col-0 and dhs mutants; assay: Chemical feeding experiment, root length of 10-day-old seedlings; format: in vivo, Arabidopsis thaliana; settings: for effect of the added compound on Trp-mediated root growth inhibition of dhs3: media with 300 µM Trp; for effect of the added compound on Trp-mediated root growth inhibition of dhs3 / effect of the added compound on Tyr-mediated root growth inhibition of dhs1: AAAs added at 300 µM, shikimate at 500 µM; for effect of the added compound on Tyr-mediated root growth inhibition of dhs1: media with 300 µM Tyr
Description: Chemical feeding experiments were carried out as described previously ([de Oliveira et al., 2019]) with some modifications. Seedlings were grown on agar plates containing 0.5 MS with 1% sucrose, 0.8% agar, and 2.5 mM MES at pH 5.7 in the growth chamber where we grew other plants in soil. AAAs and/or shikimate were added to autoclaved media after cooling down to temperatures below 55°C. Plants were grown on the same plate side by side to minimize environmental effects, and multiple plates were prepared to obtain replications. Root lengths of 10-day-old seedlings were quantified by ImageJ.

[2] = test system: AthDHS1 and AthDHS2 mixtures; assay: DHS assay using mixtures of AthDHS1 and AthDHS2 recombinant enzymes; format: biochemical, Arabidopsis thaliana; settings: 1 mM effector; molar ratios 0, 0.25, 0.5, 0.75, 1
Description: Next, we thought that the presence of non-inhibited DHS isoforms (e.g. AthDHS1) may affect the AAA sensitivity of AthDHS2, given that AthDHSs are known to function as tetrameric or dimeric forms ([Suzich et al., 1985]; [Pinto et al., 1986]; [Webby et al., 2005]). To test this, the recombinant enzymes of AAA non-inhibited AthDHS1 and AAA-inhibited AthDHS2 were mixed with different ratios (0, 0.25, 0.5, 0.75, and 1) and DHS activity assays were conducted with different inhibitors. Based on the kinetic parameters and the regulatory behaviors of individual AthDHSs, the expected level of DHS activity was first calculated and plotted (dotted lines in Figure 5, D, see the “Materials and methods” section). […] Similar results were obtained for the AthDHS2 and AthDHS3 mixture (Figure 5, E).
Unless otherwise noted, DHS enzymatic activity was monitored as previously described ([Liu et al., 2008]), with several optimizations for high-throughput assays with eight-strip PCR tubes and a thermal cycler. The enzyme solution (7.7 µL) containing 50 mM HEPES (pH 7.4) was preincubated with an effector molecule(s) at room temperature for 10 min. For assays using recombinant protein and enzyme fraction isolated from plant leaves, 0.01–0.05 µg and approximately 50 µg of proteins were used, respectively. After adding 0.5 µL of 0.1 M DTT, the samples were further incubated at room temperature for 15 min. […] The enzyme reaction was started by adding 6.8 µL of the substrate solution, then incubated at 37°C for 20 min, and terminated by adding 30 µL of 0.6 M trichloroacetic acid. After brief centrifugation, 5 µL of 200 mM NaIO4 (sodium meta-periodate) in 9 N H3PO4 was added to oxidize the enzymatic product and incubate at 25°C for 20 min. […] The absorbance of the pink supernatant was read at 549 nm with the microplate reader (Infinite 200 PRO, TECAN, Männedorf, Switzerland) to calculate DAHP production with the molar extinction coefficient at 549 nm (ε = 549 nm) of 4.5 × 10^4/M/cm. […]

[3] = test system: shikimate accumulation in Col-0 and dhs mutants; assay: Shikimate content with and without Tyr and/or glyphosate treatment; format: in vivo, Arabidopsis thaliana; settings: 250 µM glyphosate, 2 days; for increase of shikimate accumulation after treatment: plants grown with 300 µM Tyr
Description: Approximately 50–80 mg of fully expanded mature leaves were pooled from multiple plants at the same developmental stages and ground in 800 µL of extraction buffer (v/v 2:1 of methanol and chloroform with 2 µg/mL isovitexin [Millipore-Sigma], 100 µM norvaline [Thermo Fisher Scientific], and 1.25 µg/mL Tocol [Matreya LLC, State College, PA, USA] for internal standards for soluble metabolite analysis by LC–MS and GC–MS and tocopherol analysis by GC–MS, respectively), using 1600 MiniG Tissue Homogenizer (SPEX SamplePrep, Metuchen, USA) and 3-mm glass beads. After adding 600 µL of H2O and then 250 µL of chloroform, polar phase containing amino acids, and non‐polar phase containing tocopherols were separated by centrifugation, dried in new tubes. To detect Trp and AAA-derived metabolites, LC–MS analysis was carried out as previous described with some modification ([Alseekh et al., 2015]). The dried metabolites were resuspended in 70 µL of 80% LC–MS-grade methanol. Two microliters of the sample was injected onto a HSS T3 C18 reversed phase column (100 × 2.1 mm i.d., 1.8-μm particle size; Waters, Milford, CT, USA) and eluted using a 20-min gradient comprising 0.1% formic acid in LC–MS-grade water (solvent A) and 0.1% formic acid in LC–MS-grade acetonitrile (solvent B) at a flow rate of 0.4 mL/min and column temperature of 40°C. The binary linear gradient with following ratios of solvent B was used: 0–1 min, 1%; 1–13 min, 1%–35%; 13–14.5 min, 35%–70%; 14.5–15.5 min, 70%–99%, 15.5–17 min, 99%; 17–17.5 min, 99%–[…]; 17.5–20 min, 1%. The spectra were recorded using full scan mode of negative ion detection, covering a mass range from m/z 100 to 1,500. The resolution was set to 25,000 and the maximum scan time was set to 250 ms. The sheath gas was set to a value of 60, while the auxiliary gas was set to 35. The transfer capillary temperature was set to 150°C, while the heater temperature was adjusted to 300°C. The spray voltage was fixed at 3 kV, with a capillary voltage and a skimmer voltage of 25 and 15 V, respectively. Retention times, MS spectra, and associated peak intensities were extracted from the raw files using the Xcalibur software (Thermo Fisher Scientific). […] For anthocyanin quantification, the polar phase isolated for amino acid analysis was diluted 10 times with water in a new tube. […] Shikimate level was spectrometrically determined based on previous literatures ([Shaner et al., 2005]; [Sharkhuu et al., 2014]). […] After stopping the reaction by adding 100 µL of a termination solution containing 0.6 N sodium hydroxide and 0.22 M sodium sulfite, the absorption at 380 nm was immediately measured with the microplate reader. Shikimate concentration was determined by comparing with a dilution series of the shikimate standards.

T2 sequence (P29976 49-525): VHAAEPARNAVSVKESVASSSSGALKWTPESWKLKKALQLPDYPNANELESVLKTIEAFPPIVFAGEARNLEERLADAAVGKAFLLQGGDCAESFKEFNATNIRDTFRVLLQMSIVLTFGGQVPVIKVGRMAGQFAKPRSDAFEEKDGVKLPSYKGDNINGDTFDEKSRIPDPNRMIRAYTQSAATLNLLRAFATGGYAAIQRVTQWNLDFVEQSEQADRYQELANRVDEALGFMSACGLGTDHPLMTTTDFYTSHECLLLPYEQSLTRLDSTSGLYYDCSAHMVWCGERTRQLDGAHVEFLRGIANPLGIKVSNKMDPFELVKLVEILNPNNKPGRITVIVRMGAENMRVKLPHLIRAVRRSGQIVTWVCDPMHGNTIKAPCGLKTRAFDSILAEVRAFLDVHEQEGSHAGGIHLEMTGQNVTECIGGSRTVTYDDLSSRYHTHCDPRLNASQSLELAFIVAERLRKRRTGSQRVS
T1 sequence (Q00218 34-507): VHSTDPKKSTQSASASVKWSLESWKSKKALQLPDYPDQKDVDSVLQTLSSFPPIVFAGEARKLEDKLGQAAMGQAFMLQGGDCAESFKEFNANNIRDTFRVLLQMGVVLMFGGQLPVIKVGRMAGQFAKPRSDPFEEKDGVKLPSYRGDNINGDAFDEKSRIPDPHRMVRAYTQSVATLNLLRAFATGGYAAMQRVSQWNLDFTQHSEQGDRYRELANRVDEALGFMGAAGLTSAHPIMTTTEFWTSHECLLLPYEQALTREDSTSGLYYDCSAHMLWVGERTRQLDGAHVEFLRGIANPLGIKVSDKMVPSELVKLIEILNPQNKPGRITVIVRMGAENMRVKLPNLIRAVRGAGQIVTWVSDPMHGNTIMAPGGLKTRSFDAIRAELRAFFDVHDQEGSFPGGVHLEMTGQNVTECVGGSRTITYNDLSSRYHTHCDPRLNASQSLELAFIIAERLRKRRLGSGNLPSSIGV
AthDHS3, sequence (Q9SK84 entry or part of it): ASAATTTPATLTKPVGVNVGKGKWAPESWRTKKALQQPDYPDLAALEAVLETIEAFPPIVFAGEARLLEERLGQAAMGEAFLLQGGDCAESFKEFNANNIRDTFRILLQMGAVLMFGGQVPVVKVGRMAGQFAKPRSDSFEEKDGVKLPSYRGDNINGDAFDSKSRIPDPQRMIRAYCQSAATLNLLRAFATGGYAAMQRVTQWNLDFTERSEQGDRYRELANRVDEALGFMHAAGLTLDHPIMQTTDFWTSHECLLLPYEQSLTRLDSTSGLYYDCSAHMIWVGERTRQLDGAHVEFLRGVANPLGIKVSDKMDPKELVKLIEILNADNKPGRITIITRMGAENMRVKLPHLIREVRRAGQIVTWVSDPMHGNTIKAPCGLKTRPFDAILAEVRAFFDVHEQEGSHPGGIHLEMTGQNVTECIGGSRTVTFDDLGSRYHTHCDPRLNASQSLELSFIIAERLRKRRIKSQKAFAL

substrate concentration beyond which AthDHS2 was inhibited (AthDHS2; substrate inhibition): > 4 mM
k cat (AthDHS2): 11.8 ± 1.6 s⁻¹
K m (AthDHS2): 1755 ± 400 µM
V max (AthDHS2): 12.9 ± 1.8 nmol/µM/min
V max (AthDHS3): 9.92 ± 0.31 nmol/µM/min
K m (AthDHS1): 2842 ± 910 µM
V max (AthDHS1): 17.8 ± 0.59 nmol/µM/min
k cat (AthDHS1): 16.4 ± 0.54 s⁻¹
Compound: O=C[C@H](O)[C@H](O)COP(=O)(O)O [E4P, D-erythrose 4-phosphate]

Compound: O=C(O)C1=C[C@@H](O)[C@@H](O)[C@H](O)C1 [shikimate]
inhibition of AthDHS2 activity (AthDHS2): approximately 30%
effect on AthDHS3 activity (in words) (AthDHS3; 1 mM effector): did not significantly affect
effect on AthDHS1 activity (in words) (AthDHS1): did not significantly affect
sensitivity of root growth ([1]; dhs mutants, up to 1000 µM): none of the dhs mutants showed sensitivity
effect of the added compound on Trp-mediated root growth inhibition of dhs3 [1]: no effect
effect of the added compound on Tyr-mediated root growth inhibition of dhs1 [1]: no effect

Compound: COc1cc(/C=C/C(=O)O)cc(OC)c1O [sinapate]
effect on AthDHS2 activity (in words) (AthDHS2): no effects
effect on AthDHS3 activity (in words) (AthDHS3; 1 mM effector): no effects
effect on AthDHS1 activity (in words) (AthDHS1): no effects

Compound: O=C(O)/C=C/c1ccc(O)cc1 [p-coumarate]
effect on AthDHS2 activity (in words) (AthDHS2): no effects
effect on AthDHS3 activity (in words) (AthDHS3; 1 mM effector): no effects
effect on AthDHS1 activity (in words) (AthDHS1): no effects

Compound: O=C(/C=C/c1ccc(O)c(O)c1)OC1CC(C(=O)O)=CC(O)C1O (stereo not shown) [Caffeoyl shikimate]
effect on AthDHS2 activity (in words) (AthDHS2): fully inhibited
reduction of AthDHS3 activity (AthDHS3; 1 mM effector): 70%
effect on AthDHS1 activity (in words) (AthDHS1): fully inhibited

effect on AthDHS1 activity (in words) (AthDHS1): did not affect
Compound: N[C@@H](CC(=O)O)C(=O)O [aspartate]

Compound: COc1cc(/C=C/C(=O)O)ccc1O [ferulate]
effect on AthDHS2 activity (in words) (AthDHS2): no effects
effect on AthDHS3 activity (in words) (AthDHS3; 1 mM effector): no effects
effect on AthDHS1 activity (in words) (AthDHS1): no effects

inhibition of AthDHS2 activity (AthDHS2): ~25%
effect on AthDHS3 activity (in words) (AthDHS3; 1 mM effector): did not significantly affect
effect on AthDHS1 activity (in words) (AthDHS1): did not significantly affect
Compound: O=C(O)C(=O)CC1(C(=O)O)C=CC(O)C=C1 (stereo not shown) [prephenate]

k cat (AthDHS2): 8.95 ± 0.44 s⁻¹
K m (AthDHS2): 360 ± 34 µM
V max (AthDHS2): 9.81 ± 0.48 nmol/µM/min
V max (AthDHS3): 9.15 ± 0.27 nmol/µM/min
K m (AthDHS1): 250 ± 53 µM
V max (AthDHS1): 15.3 ± 0.62 nmol/µM/min
k cat (AthDHS1): 14 ± 0.57 s⁻¹
Compound: C=C(OP(=O)(O)O)C(=O)O [PEP, phosphoenolpyruvate]

Compound: O=C(O)/C=C/c1ccccc1 [cinnamate]
effect on AthDHS2 activity (in words) (AthDHS2): no effects
effect on AthDHS3 activity (in words) (AthDHS3; 1 mM effector): no effects
effect on AthDHS1 activity (in words) (AthDHS1): no effects

Compound: N[C@@H](Cc1ccccc1)C(=O)O [Phe, L-phenylalanine]
concentration beyond which AthDHS2 activity is slightly activated (AthDHS2; 1 µM to at least 5 mM tested): > 5 mM
effect on AthDHS2 activity (in words) (AthDHS2): did not significantly affect
effect on AthDHS3 activity (in words) (AthDHS3; 1 mM effector): did not significantly affect
effect on AthDHS1 activity (in words) (AthDHS1): did not significantly affect
IC50 ([1]; Arabidopsis thaliana, read-out: IC50 of root growth suppression): ~550 µM
concentration that suppressed root growth ([1]; all dhs mutants, similarly to Col-0): > 300 µM
effect of the added compound on Trp-mediated root growth inhibition of dhs3 [1]: not recovered
effect of the added compound on Tyr-mediated root growth inhibition of dhs1 [1]: not sufficient
observed DHS activity of the enzyme mixtures versus theoretically calculated activity [2]: matched with the theoretical plot

Compound: O=C(O)CNCP(=O)(O)O [glyphosate]
increase of shikimate accumulation after treatment ([3]; dhs2): five-fold
increase of shikimate accumulation after treatment ([3]; other genotypes): two–three-fold
effect on shikimate levels ([3]; without Tyr, similar between genotypes): increased shikimate levels
